One molecule from patent US7638509B2, “Diene compounds and formulations” (priority 2003, dated 2009) can be followed below.

In general, melting point refers to the temperature, or range, at which the solid turns liquid.

Series [1] has as its target T1, AR (Homo sapiens, UniProt P10275, T878A).
T1 construct: LNCaP without transfection; endogenous in cells; host or cells: LNCaP
T1 sequence (P10275 1-920 T878A): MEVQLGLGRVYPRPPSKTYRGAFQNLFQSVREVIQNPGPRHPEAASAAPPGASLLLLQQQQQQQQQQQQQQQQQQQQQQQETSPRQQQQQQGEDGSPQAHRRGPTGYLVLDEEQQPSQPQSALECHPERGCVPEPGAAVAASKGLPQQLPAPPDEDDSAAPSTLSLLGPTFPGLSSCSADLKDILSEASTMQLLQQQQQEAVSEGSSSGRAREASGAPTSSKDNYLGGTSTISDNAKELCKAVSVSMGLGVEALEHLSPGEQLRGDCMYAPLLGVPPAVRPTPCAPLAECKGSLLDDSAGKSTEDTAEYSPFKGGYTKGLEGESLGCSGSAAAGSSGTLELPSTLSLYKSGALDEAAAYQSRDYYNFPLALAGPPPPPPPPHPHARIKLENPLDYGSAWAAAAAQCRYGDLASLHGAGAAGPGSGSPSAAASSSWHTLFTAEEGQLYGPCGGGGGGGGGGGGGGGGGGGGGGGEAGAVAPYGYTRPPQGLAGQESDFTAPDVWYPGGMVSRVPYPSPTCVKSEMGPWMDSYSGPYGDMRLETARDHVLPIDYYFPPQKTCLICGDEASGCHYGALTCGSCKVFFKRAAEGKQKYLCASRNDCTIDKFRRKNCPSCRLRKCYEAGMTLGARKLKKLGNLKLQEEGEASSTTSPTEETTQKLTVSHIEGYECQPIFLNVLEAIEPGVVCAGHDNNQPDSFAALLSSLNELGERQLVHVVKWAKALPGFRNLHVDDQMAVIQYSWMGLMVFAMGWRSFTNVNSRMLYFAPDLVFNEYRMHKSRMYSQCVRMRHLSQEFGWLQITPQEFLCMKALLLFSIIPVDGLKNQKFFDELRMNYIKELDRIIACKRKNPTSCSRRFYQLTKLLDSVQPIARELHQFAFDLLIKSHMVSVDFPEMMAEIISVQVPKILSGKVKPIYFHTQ
As to the kind of experiment: Adiol-induced AR transcription, MMTV-Luc in LNCaP cells. In kind it is cell-based. Particulars: 2.5 nM Adiol, compound at 1 μM. On the procedure: Cell Culture, Transfection, and Reporter Gene Assay. The human prostate cancer cell lines, LNCaP, PC-3, and DU145, and non-prostate cancer cell line COS-1 were maintained in RPMI or Dulbecco's modified Eagle's medium (DMEM) (Life Technologies) supplemented with 10% fetal bovine serum (FBS). Transfections and luciferase (Luc) assays were performed as previously described (Miyamoto, H., Yeh, S., Wilding, G. & Chang, C. (1998) Proc. Natl. Acad. Sci. USA 95, 7379-7384; Miyamoto, H., Rahman, M., Takatera, H., Kang, H.-Y., Yeh, S., Chang, H.-C., Nishimura, K., Fujimoto, N. & Chang, C. (2002) J. Biol. Chem. 277, 4609-4617). Briefly, cells seeded to reach a density of 50-60% confluence in 12 well tissue culture plates were transfected with 1.5 μg of DNA according to “SuperFect transfection” instructions (Qiagen). After 2-3 h incubation, cells were treated with medium supplemented with charcoal-stripped FBS containing either ethanol or ligands for 24 h. The cells were then harvested and whole cell extracts were used for Luc assay. The Luc activity was determined using a Dual-Luciferase Reporter Assay System (Promega) and luminometer.
Effect of ADEK on AR Transcription. […] (set as 100%). Values were obtained from the mean±SD of at least three determinations.

In series [2] the target is T2, glucocorticoid receptor (GR) (Homo sapiens, UniProt P04150).
T2 construct: expressed in transfected cells; host or cells: PC-3
T2 sequence (P04150 1-777): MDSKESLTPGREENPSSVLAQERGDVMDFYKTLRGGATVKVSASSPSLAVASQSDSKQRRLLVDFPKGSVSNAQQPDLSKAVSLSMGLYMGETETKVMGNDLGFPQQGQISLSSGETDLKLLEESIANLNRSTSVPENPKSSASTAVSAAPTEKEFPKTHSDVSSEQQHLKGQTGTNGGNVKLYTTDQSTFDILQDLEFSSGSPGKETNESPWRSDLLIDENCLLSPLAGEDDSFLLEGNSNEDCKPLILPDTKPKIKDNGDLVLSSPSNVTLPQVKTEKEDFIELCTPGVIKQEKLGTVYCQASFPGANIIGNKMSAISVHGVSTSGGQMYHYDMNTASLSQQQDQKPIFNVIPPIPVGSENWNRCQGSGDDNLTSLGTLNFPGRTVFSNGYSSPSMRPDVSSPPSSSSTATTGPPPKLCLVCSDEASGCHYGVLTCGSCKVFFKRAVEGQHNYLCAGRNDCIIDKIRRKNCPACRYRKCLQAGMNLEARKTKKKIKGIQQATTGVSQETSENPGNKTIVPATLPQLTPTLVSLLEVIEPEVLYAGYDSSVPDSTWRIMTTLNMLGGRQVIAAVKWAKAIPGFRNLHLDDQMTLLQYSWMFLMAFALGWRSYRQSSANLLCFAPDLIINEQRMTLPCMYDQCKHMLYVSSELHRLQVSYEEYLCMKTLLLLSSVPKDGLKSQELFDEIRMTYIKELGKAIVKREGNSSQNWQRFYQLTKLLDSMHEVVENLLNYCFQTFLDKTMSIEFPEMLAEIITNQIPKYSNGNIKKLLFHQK
As to the kind of experiment: Steroid hormone specificity, GR/MMTV-Luc in PC-3 cells. Type of series: cell-based. Conditions: PC-3, GR/MMTV-Luc, ADEK at 0.01 mM, 0.1 mM and 1.0 mM, 24 h. On the procedure:
Cell Culture, Transfection, and Reporter Gene Assay. The human prostate cancer cell lines, LNCaP, PC-3, and DU145, and non-prostate cancer cell line COS-1 were maintained in RPMI or Dulbecco's modified Eagle's medium (DMEM) (Life Technologies) supplemented with 10% fetal bovine serum (FBS). Transfections and luciferase (Luc) assays were performed as previously described (Miyamoto, H., Yeh, S., Wilding, G. & Chang, C. (1998) Proc. Natl. Acad. Sci. USA 95, 7379-7384; Miyamoto, H., Rahman, M., Takatera, H., Kang, H.-Y., Yeh, S., Chang, H.-C., Nishimura, K., Fujimoto, N. & Chang, C. (2002) J. Biol. Chem. 277, 4609-4617). Briefly, cells seeded to reach a density of 50-60% confluence in 12 well tissue culture plates were transfected with 1.5 μg of DNA according to “SuperFect transfection” instructions (Qiagen). […] The Luc activity was determined using a Dual-Luciferase Reporter Assay System (Promega) and luminometer.
Steroid Hormone Specificity of ADEK. To characterize the steroid hormone activity of ADEK, PC-3 cells were transfected with steroid receptor/reporter (progesterone receptor (PR)/MMTV-Luc, glucocorticoid receptor (GR)/MMTV-Luc, or estrogen receptor (ER)/ERE-Luc) and analyzed for expression of the Luc reporter gene. […] The Luc activity was measured relative to that of ETOH treatment (set as 1-fold). […]

`CC(=O)O[C@H]1C=C[C@@]2(C)C(=CC[C@@H]3[C@@H]2CC[C@@]2(C)[C@H]3CCC23OCCO3)C1` [ADEK, 3β-acetoxy-17,17-ethylenedioxyandrosta-1,5-diene]: the melting point was 105 to 106 °C. The “repression of Adiol-induced AR transcription” value in series [1] is given as roughly 58%. Moreover, the “glucocorticoid activity (in words)” value in series [2] was “no significant”.
